Experiments:
Type in all cases: cell-based
HA-FKBP12 = biological target: T1, HA-FKBP12 (Homo sapiens, UniProt P62942); assay: ubiquitination of immunoprecipitated HA-FKBP12 in HEK293T cells
T1 construct: expressed in transfected cells; host or cells: HEK293T
Description: (§1) (A) Left, western blots showing effects of YT47R and YT47S on the immunoprecipitation (IP) of FLAG-DCAF1-WT or FLAG-DCAF1-C1113A with HA-FKBP12 in HEK293T cells co-expressing these proteins. Cells were treated with YT47R or YT47S (5 μM) for 2 h in the presence of MG132 (10 μM) prior to lysis and IP with an anti-HA antibody and western blotting for the indicated proteins (DCAF1, FKBP12, and ubiquitinated protein). Right, bar graphs quantifying DCAF1 (top) and ubiquitination (Ub) (bottom) in the indicated IP groups. (B) Left, western blots showing effects of YT47R and YT47S on the IP of endogenous DCAF1 with HA-FKBP12 in HEK293T cells expressing HA-FKBP12. […] Right, bar graph quantifying DCAF1 in the indicated IP groups. […] Statistical significance was calculated with unpaired two-tailed Student's t-tests comparing YT41R/YT47R- and DMSO-treated cells. **P<0.01, ****P<0.0001. (C) MS-ABPP quantification of IA-DTB labeling of the indicated cysteines in DCAF1 from FLAG-DCAF1-WT-expressing HEK293T cells treated with the indicated concentrations of YT47R (3 h) relative to cells treated with DMSO. […] Statistical significance was calculated with unpaired two-tailed Student's t-tests comparing compound to DMSO treated cells. *P<0.1. […]

[1] = system: ternary complex of FKBP12 and DCAF1; assay: co-immunoprecipitation of DCAF1 with HA-FKBP12 in HEK293T cells (ternary complex); details: 5 μM, 2 h
Description: (A) Left, western blots showing effects of YT47R and YT47S on the immunoprecipitation (IP) of FLAG-DCAF1-WT or FLAG-DCAF1-C1113A with HA-FKBP12 in HEK293T cells co-expressing these proteins. Cells were treated with YT47R or YT47S (5 μM) for 2 h in the presence of MG132 (10 μM) prior to lysis and IP with an anti-HA antibody and western blotting for the indicated proteins (DCAF1, FKBP12, and ubiquitinated protein). Right, bar graphs quantifying DCAF1 (top) and ubiquitination (Ub) (bottom) in the indicated IP groups. (B) Left, western blots showing effects of YT47R and YT47S on the IP of endogenous DCAF1 with HA-FKBP12 in HEK293T cells expressing HA-FKBP12. Cells were treated with YT47R or YT47S (5 μM) for 2 h in the presence of MG132 (10 μM) prior to lysis and IP with an anti-HA antibody and western blotting for the indicated proteins (DCAF1, FKBP12). Right, bar graph quantifying DCAF1 in the indicated IP groups. For (A, B), data are mean values±SEM for three independent experiments. Statistical significance was calculated with unpaired two-tailed Student's t-tests comparing YT41R/YT47R- and DMSO-treated cells. **P<0.01, ****P<0.0001. (C) MS-ABPP quantification of IA-DTB labeling of the indicated cysteines in DCAF1 from FLAG-DCAF1-WT-expressing HEK293T cells treated with the indicated concentrations of YT47R (3 h) relative to cells treated with DMSO. Data represent average values±SEM from four independent experiments. Statistical significance was calculated with unpaired two-tailed Student's t-tests comparing compound to DMSO treated cells. *P<0.1.
Finally, we investigated whether electrophilic PROTACs induce a stable ternary complex of FKBP12 with DCAF1 and promote FKBP12 ubiquitination. […] A ternary complex was not observed in cells expressing the DCAF1-C1113A mutant (FIG. 6A), supporting that YT47R induces this complex through site-specifically reacting with C1113. […] In considering possible reasons why this ternary complex formation with endogenous DCAF1 was insufficient to support the degradation of recombinantly expressed FKBP12 (FIG. 4A), we speculate that our current PROTACs (YT41R, YT47R) may require further improvements in cellular properties to enable robust targeted protein degradation mediated by physiological concentrations of DCAF1.

[2] = biological target: T2, C1113 of recombinantly expressed DCAF1 (Homo sapiens, UniProt Q9Y4B6); assay: MS-ABPP in FLAG-DCAF1-WT-expressing HEK293T cells; details: 5 μM, 3 h
T2 construct: expressed in transfected cells; host or cells: HEK293T
T2 sequence (Q9Y4B6 whole entry): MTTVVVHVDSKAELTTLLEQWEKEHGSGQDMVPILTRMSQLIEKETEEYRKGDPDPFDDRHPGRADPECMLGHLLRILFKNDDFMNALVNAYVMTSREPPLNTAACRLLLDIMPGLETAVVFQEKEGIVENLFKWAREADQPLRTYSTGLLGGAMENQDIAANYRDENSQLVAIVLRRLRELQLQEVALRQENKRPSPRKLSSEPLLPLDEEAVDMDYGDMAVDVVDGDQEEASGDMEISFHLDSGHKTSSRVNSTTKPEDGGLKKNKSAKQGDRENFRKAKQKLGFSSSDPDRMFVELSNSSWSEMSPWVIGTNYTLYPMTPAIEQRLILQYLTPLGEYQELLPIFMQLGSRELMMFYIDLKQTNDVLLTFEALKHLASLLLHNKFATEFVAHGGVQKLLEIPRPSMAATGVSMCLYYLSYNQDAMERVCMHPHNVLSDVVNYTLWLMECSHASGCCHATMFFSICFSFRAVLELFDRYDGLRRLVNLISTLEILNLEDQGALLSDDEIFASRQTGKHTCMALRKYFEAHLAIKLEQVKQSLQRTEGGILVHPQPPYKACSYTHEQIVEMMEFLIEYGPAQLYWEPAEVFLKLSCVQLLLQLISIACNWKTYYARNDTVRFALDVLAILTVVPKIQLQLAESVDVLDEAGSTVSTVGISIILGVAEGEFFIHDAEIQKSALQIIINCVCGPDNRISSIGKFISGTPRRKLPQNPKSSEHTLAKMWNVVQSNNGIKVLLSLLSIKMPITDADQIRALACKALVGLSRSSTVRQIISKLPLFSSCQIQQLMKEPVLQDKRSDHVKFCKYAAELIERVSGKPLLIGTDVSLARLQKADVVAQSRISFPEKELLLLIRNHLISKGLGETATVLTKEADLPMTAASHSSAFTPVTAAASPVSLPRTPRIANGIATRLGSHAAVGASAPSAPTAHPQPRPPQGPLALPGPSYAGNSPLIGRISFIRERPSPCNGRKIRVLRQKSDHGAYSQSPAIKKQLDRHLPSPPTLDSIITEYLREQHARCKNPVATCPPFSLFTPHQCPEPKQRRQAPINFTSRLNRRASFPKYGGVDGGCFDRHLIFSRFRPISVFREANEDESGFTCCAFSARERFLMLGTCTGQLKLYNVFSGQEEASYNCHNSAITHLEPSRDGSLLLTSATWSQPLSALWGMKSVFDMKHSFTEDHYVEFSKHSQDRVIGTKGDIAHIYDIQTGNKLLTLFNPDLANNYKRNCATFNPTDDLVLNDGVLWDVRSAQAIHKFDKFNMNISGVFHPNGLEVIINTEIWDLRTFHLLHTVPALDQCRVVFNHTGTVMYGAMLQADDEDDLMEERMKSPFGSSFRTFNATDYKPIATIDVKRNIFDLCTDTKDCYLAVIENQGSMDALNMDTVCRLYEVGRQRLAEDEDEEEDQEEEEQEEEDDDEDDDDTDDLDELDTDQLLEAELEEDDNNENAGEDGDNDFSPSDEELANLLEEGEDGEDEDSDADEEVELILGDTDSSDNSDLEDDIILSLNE
Description: as §1

T1 sequence (P62942 whole entry): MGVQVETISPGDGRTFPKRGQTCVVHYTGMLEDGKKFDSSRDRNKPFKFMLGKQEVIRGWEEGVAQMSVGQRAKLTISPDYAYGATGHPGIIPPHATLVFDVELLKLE

`C=CC(=O)N1C[C@H](c2ccc(C(=O)NCCOCCOCCOCCNC(=O)COc3cccc([C@@H](CCc4ccc(OC)c(OC)c4)OC(=O)[C@@H]4CCCCN4C(=O)C(=O)C(C)(C)CC)c3)cc2)[C@@H]1C(=O)Nc1cccc2cccnc12` [YT47R] was tested, and the “polyubiquitination of immunoprecipitated HA-FKBP12” value (HA-FKBP12; DCAF1-WT-expressing cells, 5 μM, 2 h, MG132) was “robust polyubiquitination”, the FKBP12 ubiquitination (HA-FKBP12; HEK293T cells that did not express exogenous DCAF1, versus YT47S) was “increased FKBP12 ubiquitination” and the “ternary complex of FKBP12 and DCAF1” value ([1]; FLAG-DCAF1-WT, in the presence of MG132 (10 μM)) was “clear evidence of a ternary complex”. For the same compound, the “ternary complex of endogenous DCAF1 with HA-FKBP12” value ([1]; HEK293T expressing HA-FKBP12 only, MG132, compared to YT47S or DMSO) was “more robust ternary complex”, the “ternary complex of FKBP12 and DCAF1” value ([1]; cells expressing the DCAF1-C1113A mutant, MG132) was “not observed” and the “engagement of C1113 of recombinantly expressed DCAF1” value [2] was roughly 20%.
